Source: patent publication US20050250715A1, “Remedy” (priority 2002, published 2005)

Test system: NGF
Assay: Enhancing activity for NGF production in L-M cells (NGF in culture medium by enzyme immunoassay)
Type: cell-based, murine
Conditions: 20 hours; for Amount of NGF Production (%): control = 100%
Protocol: (2) The enhancing activity for NGF production of the compound a was assayed. L-M cells (ATCC CCL-1.2) from murine fibroblasts were suspended in an M199 medium (manufactured by Bio Whittaker) containing 0.5% bactopeptone (manufactured by Gibco) so as to have a concentration of 1.5×10^5 cells/mL. The suspension was put in a 96 well plate in an amount of 0.1 mL each well, and the cells were aseptically cultured. After culturing the cells for 3 days, the medium was removed therefrom, and exchanged with an M199 medium containing 0.5% bovine serum albumin (manufactured by Sigma). The compound a was added thereto, and the cells were cultured for 20 hours. After the termination of the culture, the concentration of NGF in the culture medium was assayed by an enzyme immunoassay method (NGF Emax Immuno Assay System, manufactured by Promega). The experiment was carried out twice, and an average value was taken. […] The amount of NGF production of the control was 0.739 ng/mL. As to the control, the concentration in the culture medium was determined in the same manner except that the compound a was not added. It is the same as that of the following examples.

SMILES | enhancing activity for NGF production (result in words) | Amount of NGF Production (%) (Concentration of Sample 0.5 mM) | Amount of NGF Production (%) (Concentration of Sample 1.0 mM) | Amount of NGF Production (%) (Concentration of Sample 2 mM) | Amount of NGF Production (%) (Table 3: Concentration of Sample 25 mM) | Amount of NGF Production (%) (Table 3: Concentration of Sample 50 mM)
CC(=O)OC1C(OC2C(O)COC(OC3C(O)C(C)(C)CC4C5=CCC6C7(C)CCC(OC8OC(C(=O)O)C(O)C(O)C8OC8OC(CO)C(O)C(O)C8OC8OC(CO)C(O)C(O)C8O)C(C)(CO)C7CCC6(C)C5(C)CCC43C)C2O)OCC(O)C1O [Compound a, 3-O-[β-D-glucopyranosyl(1→2)-β-D-galactopyranosyl-(1→2)-β-D-glucuronopyranosyl]-22-O-[2-O-acetyl-β-D-xylopyranosyl(1→3)-α-L-arabinopyranosyl]soyasapogenol A] | has an enhancing activity for NGF production | 228.3 | 231.6 | 212.6 | – | –
CC(=O)OC1C(O)COC(OC2C(O)COC(OC3C(O)C(C)(C)CC4C5=CCC6C7(C)CCC(OC8OC(C(=O)O)C(O)C(O)C8OC8OC(CO)C(O)C(O)C8OC8OC(CO)C(O)C(O)C8O)C(C)(CO)C7CCC6(C)C5(C)CCC43C)C2O)C1O [Compound b, 3-O-[β-D-glucopyranosyl(1→2)-β-D-galactopyranosyl-(1→2)-β-D-glucuronopyranosyl]-22-O-[3-O-acetyl-β-D-xylopyranosyl(1→3)-α-L-arabinopyranosyl]soyasapogenol A] | has an enhancing activity for NGF production | 220.9 | 251.2 | 272.3 | – | –
CC(=O)OC1COC(OC2C(O)COC(OC3C(O)C(C)(C)CC4C5=CCC6C7(C)CCC(OC8OC(C(=O)O)C(O)C(O)C8OC8OC(CO)C(O)C(O)C8OC8OC(CO)C(O)C(O)C8O)C(C)(CO)C7CCC6(C)C5(C)CCC43C)C2O)C(O)C1O [Compound c, 3-O-[β-D-glucopyranosyl(1→2)-β-D-galactopyranosyl-(1→2)-β-D-glucuronopyranosyl]-22-O-[4-O-acetyl-β-D-xylopyranosyl(1→3)-α-L-arabinopyranosyl]soyasapogenol A] | has an enhancing activity for NGF production | 255.1 | 289.2 | 323.7 | – | –
CC(=O)OC1C(O)COC(OC2C(O)COC(OC3C(O)C(C)(C)CC4C5=CCC6C7(C)CCC(OC8OC(C(=O)O)C(O)C(O)C8OC8OC(CO)C(O)C(O)C8OC8OC(CO)C(O)C(O)C8O)C(C)(CO)C7CCC6(C)C5(C)CCC43C)C2O)C1OC(C)=O [Compound d, 3-O-[β-D-glucopyranosyl(1→2)-β-D-galactopyranosyl-(1→2)-β-D-glucuronopyranosyl]-22-O-[2,3-di-O-acetyl-β-D-xylopyranosyl(1→3)-α-L-arabinopyranosyl]soyasapogenol A] | has an enhancing activity for NGF production | 255.8 | 281.1 | 276.5 | – | –
CC(=O)OC1COC(OC2C(O)COC(OC3C(O)C(C)(C)CC4C5=CCC6C7(C)CCC(OC8OC(C(=O)O)C(O)C(O)C8OC8OC(CO)C(O)C(O)C8OC8OC(CO)C(O)C(O)C8O)C(C)(CO)C7CCC6(C)C5(C)CCC43C)C2O)C(OC(C)=O)C1O [Compound e, 3-O-[β-D-glucopyranosyl(1→2)-β-D-galactopyranosyl-(1→2)-β-D-glucuronopyranosyl]-22-O-[2,4-di-O-acetyl-β-D-xylopyranosyl(1→3)-α-L-arabinopyranosyl]soyasapogenol A] | has an enhancing activity for NGF production | 214.0 | 233.7 | 230.1 | – | –
CC(=O)OC1COC(OC2C(O)COC(OC3C(O)C(C)(C)CC4C5=CCC6C7(C)CCC(OC8OC(C(=O)O)C(O)C(O)C8OC8OC(CO)C(O)C(O)C8OC8OC(CO)C(O)C(O)C8O)C(C)(CO)C7CCC6(C)C5(C)CCC43C)C2O)C(O)C1OC(C)=O [Compound f, 3-O-[β-D-glucopyranosyl(1→2)-β-D-galactopyranosyl-(1→2)-β-D-glucuronopyranosyl]-22-O-[3,4-di-O-acetyl-β-D-xylopyranosyl(1→3)-α-L-arabinopyranosyl]soyasapogenol A] | has an enhancing activity for NGF production | 204.5 | 208.8 | 218.5 | – | –
CC(=O)OCC1OC(OC2C(O)COC(OC3C(O)C(C)(C)CC4C5=CCC6C7(C)CCC(OC8OC(C(=O)O)C(O)C(O)C8OC8OC(CO)C(O)C(O)C8OC8OC(CO)C(O)C(O)C8O)C(C)(CO)C7CCC6(C)C5(C)CCC43C)C2O)C(O)C(OC(C)=O)C1OC(C)=O [Compound g, 3-O-[β-D-glucopyranosyl(1→2)-β-D-galactopyranosyl-(1→2)-β-D-glucuronopyranosyl]-22-O-[3,4,6-tri-O-acetyl-β-D-glucopyranosyl(1→3)-α-L-arabinopyranosyl]soyasapogenol A] | has an enhancing activity for NGF production | 295.4 | 277.2 | 247.6 | – | –
CC(=O)OCC1OC(OC2C(O)COC(OC3C(O)C(C)(C)CC4C5=CCC6C7(C)CCC(OC8OC(C(=O)O)C(O)C(O)C8OC8OC(CO)C(O)C(O)C8OC8OC(CO)C(O)C(O)C8O)C(C)(CO)C7CCC6(C)C5(C)CCC43C)C2O)C(OC(C)=O)C(OC(C)=O)C1OC(C)=O [Compound h, 3-O-[β-D-glucopyranosyl(1→2)-β-D-galactopyranosyl-(1→2)-β-D-glucuronopyranosyl]-22-O-[2,3,4,6-tetra-O-acetyl-β-D-glucopyranosyl(1→3)-α-L-arabinopyranosyl]soyasapogenol A] | has enhancing activity for NGF production | 273.3 | 301.7 | 307.2 | – | –
CC1(C)C[C@@H](O)[C@]2(C)CC[C@]3(C)C(=CC[C@@H]4[C@@]5(C)CC[C@H](O[C@@H]6O[C@H](C(=O)O)[C@@H](O)[C@H](O)[C@H]6O[C@@H]6O[C@H](CO)[C@H](O)[C@H](O)[C@H]6O[C@@H]6O[C@H](CO)[C@@H](O)[C@H](O)[C@H]6O)[C@@](C)(CO)[C@@H]5CC[C@]43C)[C@@H]2C1 [Compound i, 3-O-[β-D-glucopyranosyl(1→2)-β-D-galactopyranosyl-(1→2)-β-D-glucuronopyranosyl]-soyasapogenol B] | has enhancing activity for NGF production | – | 116.8 | 169.4 | – | –
C[C@@H]1O[C@@H](O[C@H]2[C@H](O[C@H]3[C@H](O[C@H]4CC[C@@]5(C)[C@@H](CC[C@]6(C)[C@@H]5CC=C5[C@@H]7CC(C)(C)C[C@@H](O)[C@]7(C)CC[C@]56C)[C@@]4(C)CO)O[C@H](C(=O)O)[C@@H](O)[C@@H]3O)O[C@H](CO)[C@H](O)[C@@H]2O)[C@H](O)[C@H](O)[C@H]1O [Compound j, 3-O-[α-L-rhamnopyranosyl(1→2)-β-D-galactopyranosyl-(1→2)-β-D-glucuronopyranosyl]-soyasapogenol B] | has enhancing activity for NGF production | 138.2 | 176.4 | 212.5 | – | –
CC1(C)CC(=O)C2(C)CCC3(C)C(=CCC4C5(C)CCC(OC6OC(C(=O)O)C(O)C(O)C6OC6OC(CO)C(O)C(O)C6OC6OC(CO)C(O)C(O)C6O)C(C)(CO)C5CCC43C)C2C1 [Compound k, 3-O-[β-D-glucopyranosyl(1→2)-β-D-galactopyranosyl-(1→2)-β-D-glucuronopyranosyl]-soyasapogenol E] | has enhancing activity for NGF production | – | 115.9 | 456.3 | – | –
CC1OC(OC2C(OC3C(OC4CCC5(C)C(CCC6(C)C5CC=C5C7CC(C)(C)CC(=O)C7(C)CCC56C)C4(C)CO)OC(C(=O)O)C(O)C3O)OC(CO)C(O)C2O)C(O)C(O)C1O [Compound l, 3-O-[α-L-rhamnopyranosyl(1→2)-β-D-galactopyranosyl-(1→2)-β-D-glucuronopyranosyl]-soyasapogenol E] | has enhancing activity for NGF production | – | 145.9 | 531.2 | – | –
CC(=O)OC1COC(OC2C(O)COC(OC3C(O)C(C)(C)CC4C5=CCC6C7(C)CCC(OC8OC(C(=O)O)C(O)C(O)C8OC8OC(CO)C(O)C(O)C8OC8OC(CO)C(O)C(O)C8O)C(C)(CO)C7CCC6(C)C5(C)CCC43C)C2O)C(OC(C)=O)C1OC(C)=O [Compound m, 3-O-[β-D-glucopyranosyl(1→2)-β-D-galactopyranosyl-(1→2)-β-D-glucuronopyranosyl]-22-O-[2,3,4-tri-O-acetyl-β-D-xylopyranosyl(1→3)-α-L-arabinopyranosyl]soyasapogenol A] | has enhancing activity for NGF production | 263.3 | 250.9 | 233.4 | – | –
CC1(C)CC2=C3CC[C@@H]4[C@@]5(C)CCC(O)[C@](C)(CO)[C@@H]5CC[C@@]4(C)[C@]3(C)CC[C@@]2(C)C(O)C1 (stereo partly shown) [Compound n, 13(18)-oleanene-3,22,24-triol] | has enhancing activity for NGF production | – | – | – | 197.9 | 522.6
